Assay results published in US9926293B2, “Multivalent RAS binding compounds” (THE TRUSTEES OF COLUMBIA UNIVERSITY IN THE CITY OF NEW YORK, priority 2014, dated 2018).

Legend:
SW480 (KRAS^G12V) = experiment: Multicellular tumor spheroids in low adherence plates; type: cell-based; details: 72 hours
Experimental: Multicellular Tumor Spheroids
Multicellular tumor spheroids (MCTSs) were grown in 96-well Corningware Ultra Low Attachment (ULA) Plates (CLS 3474). 100 μL of cell suspension containing 2×10^4 cells/ml were added to each well of the ULA plate containing 100 μL of a 2× solution of the desired concentration of compounds. Cells were incubated at 37° C., 5% CO2 for 72 hours to allow for MCTS formation. After 72 hours, 50 μL of a 50% solution of Alamar blue and medium was added and incubated for 12 hours prior to measurements on a Victor3 plate reader as previously described.

[1] = system: KRAS^LSLG12D; p53^fl/fl; Pdx1-Cre pancreatic tumors; experiment: KP^f/fC mouse study; type: in vivo; details: for toxicity: 30 mg/kg once daily i.p.
Experimental: KRAS^LSLG12D; p53^fl/fl; Pdx1-Cre (KP^F/FC) mice have been previously described (Bardeesy et al., 2006). Animals were housed in a barrier facility and monitored daily prior to enrollment on studies. All experiments were carried out in compliance with established IACUC guidelines of Columbia University.
Paraffin embedded samples were sectioned at […] and mounted on positively charged sample slides. These slides were heated at 60° C. for 15-30 minutes and subsequently rehydrated by standard protocols. Unmasking was performed in 10 mM citrate buffer, pH 6 for 5 minutes in a pressure cooker at high temperature, followed by a peroxidase quench in 3% hydrogen peroxide for 20 minutes. Blocking was carried out using 1.5% horse serum and 2% animal free blocker (Vector Labs) in TBS-T for 1 hour at room temperature. Slides were incubated with primary antibody (cleaved caspase-3, catalog no. 9664; ERK, catalog no. 4695; pERK, catalog no. 4376. All antibodies from Cell Signaling) overnight at 4° C. Slides were then allowed to equilibrate to room temperature prior to washing with TBS-T and incubation with secondary antibody (ImmPress polymer reagent, Vector Labs). Signal was developed with ImmPACT DAB Peroxidase Substrate (Vector Labs). Slides were counterstained with hematoxylin for 30 seconds. For quantification of cleaved-caspase 3 staining, all available 40× fields on three separate sections of biopsy samples and twenty total 40× fields from two separate sections of necropsy samples were analyzed for each study mouse.
Mice were monitored closely for changes in health status and were sacrificed after 5 days on study or once they met endpoint criteria in keeping with IACUC standards.

GppNHp-loaded KRASG12D = biological target: T1, GppNHp-loaded KRASG12D (Homo sapiens, UniProt P01116, G12D); experiment: Isothermal titration calorimetry; type: binding; details: ITC, 25° C.; read-out: dissociation constant
T1 construct: made in house; host or cells: Escherichia coli BL21-Gold (DE3)
T1 sequence (P01116 1-169 isoform P01116-2 G12D): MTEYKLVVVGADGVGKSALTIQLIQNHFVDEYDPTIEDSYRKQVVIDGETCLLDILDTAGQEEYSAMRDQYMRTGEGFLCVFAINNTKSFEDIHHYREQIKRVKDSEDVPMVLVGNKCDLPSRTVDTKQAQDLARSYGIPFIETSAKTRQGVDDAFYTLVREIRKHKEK
Experimental: Isothermal Titration Calorimetry (ITC)
All ITC experiments were carried out at 25° C. on a MicoCal Auto-ITC200 system (GE Healthcare).
450 μL of the compound solution was loaded into the cell at 250 μM in ITC buffer (25 mM Tris pH 7.4, 1 mM TCEP, 100 mM NaCl, 5 mM MgCl2, 0.05% Tween-20) with a final DMSO concentration at 1.25% (v/v). KRAS^G12D⋅GppNHp was buffer exchanged into same ITC buffer using Amicon Ultra 10 kDa size exclusion filter spin columns (buffer replaced with ITC buffer four times). Prior to loading 130 μL of KRAS^G12D⋅GppNHp into the syringe at 2.5 mM, DMSO was added to match the amount DMSO present in the cell. ITC titration experiments were carried out at 25° C. with 19 injections, 2 μl per injection, and 180 seconds between each injection. Reference cell power was set to 5 μcal/sec. A control experiment was performed where ITC buffer was titrated into compound 31MEW44 alone to account for heat released due to dilution. This background was subtracted from test data before the final dissociation constant was obtained. Data were analyzed using the one-site binding model in Origin 7.1 software. The dissociation constant, Kd, was calculated according to equation Kd=1/Ka. Gibbs free energy, ΔG, was calculated from the equation ΔG=−RTInKa. −TΔS was calculated from the equation ΔG=ΔH−TΔS. All other parameters, Ka, n, ΔH, were determined directly from the titration data.

[2] = system: primary T-ALL cells with mutant NRAS (G13V and G13D); experiment: Viability of patient-derived T-ALL samples cultured in vitro, mutant NRAS; type: cell-based; details: Homo sapiens, 72 hours, relative to vehicle
Experimental: Primary Cell Co-Culture and In Vitro Cell Viability Assays.
Cells were harvested 72 hours after treatment and analyzed cell viability using the BD cell viability kit with liquid counting beads (BD Bioscience) gating out stroma cells (GFP+), dead cells and particles (PI+). We acquired data using a FACSCanto II flowcytometer (BD Bioscience) and analyzed it using FlowJo software (Tree Star, Inc.). Viability data is represented as % relative to vehicle treatment.

[3] = system: RAS-RAF and RAS-PI3K interaction in BJeLR cells; experiment: Immunoprecipitation with HRAS antibody, blot for cRAF and PI3Kgamma; type: cell-based; details: 10% FBS
Experimental: BJeLR cells were seeded 16 hours prior to use in 10% FBS in DMEM. […] After 6 hours cells were washed twice with ice cold buffer (25 mM tris, 100 mM NaCl, 1 mM TCEP, 5 mM MgCl2, 0.1% tween-20 and 1 protease inhibitor/25 mL). Cells were scrapped, pelleted at 13,000 rpm for 10 minutes at 4° C., then passed through a 26 gauge needle several times. The solution was spun down a second time at 13,000 rpm for 15 minutes at 4° C., to remove unlysed cells and debris. HRAS antibody (Santa cruz, SC-520) was then added to the lysate (1:100) and the solution was rocked at 4° C. for 16 hours. Protein A agrose beads were then added and the solution was rotated at 4° C. for an additional 6 hours. The solutions were spun down at 1500×g for 2 minutes and the supernatant was removed by syringe. The beads were washed twice by this process with buffer, then resuspended in 2.5×SDS.

[4] = pre- vs post-treatment tumor samples, 30 mg/kg i.p.

## NC1(C(=O)NCCCn2cc(-c3ccc(OC(F)(F)F)cc3)c3cc(CN4CCN(Cc5c(Cl)cccc5Cl)CC4)ccc32)CCNCC1 [Compound 31MEW44, 4-amino-N-(3-(5-((4-(2,6-dichlorobenzyl)piperazin-1-yl)methyl)-3-(4-(trifluoromethoxy)phenyl)-1H-indol-1-yl)propyl)piperidine-4-carboxamide]
SW480 (KRAS^G12V)
  size of multicellular tumor spheroids: decreased in size in a dose-dependent manner
[1]; KP^f/fC mice
  toxicity: toxicity was observed
[1]; immunohistochemistry, 30 mg/kg i.p.
  cleaved caspase-3 in tumor: modest increase in cleaved caspase-3
[1]; [4]
  phosphorylated AKT (S473) in tumor: substantial decrease
  phosphorylated ERK1/2 in tumor: substantial decrease
[1]; wild-type mice
  toxicity: not in wild-type mice
GppNHp-loaded KRASG12D
  Kd: 34 µM
[2]
  viability at 5 µM: 20 to 40%
[3]
  co-immunoprecipitated cRAF and PI3K: decreased levels of co-immunoprecipitated cRAF and PI3K
